Assay results from patent publication US6204282A, “Benzimidazole compounds that are vitronectin receptor antagonists” (Schering Corporation, priority 1999, dated 2001).

Molecular target: αllbβ3 receptor (Homo sapiens, UniProt P05106+P08514)
Assay: similar competitive assay with purified αllbβ3 receptor and 125I-echistatin (specificity index versus αvβ3)
Assay type: binding
Conditions: IC50 αllbβ3 / IC50 αvβ3
Text: The specificity index, which is a measure of the relative binding affinity for αvβ3 versus αllbβ3, may be determined by dividing the IC50 value for αllbβ3by the IC50 value for αvβ3.

Sequence of αllbβ3 receptor (P08514 32-1039): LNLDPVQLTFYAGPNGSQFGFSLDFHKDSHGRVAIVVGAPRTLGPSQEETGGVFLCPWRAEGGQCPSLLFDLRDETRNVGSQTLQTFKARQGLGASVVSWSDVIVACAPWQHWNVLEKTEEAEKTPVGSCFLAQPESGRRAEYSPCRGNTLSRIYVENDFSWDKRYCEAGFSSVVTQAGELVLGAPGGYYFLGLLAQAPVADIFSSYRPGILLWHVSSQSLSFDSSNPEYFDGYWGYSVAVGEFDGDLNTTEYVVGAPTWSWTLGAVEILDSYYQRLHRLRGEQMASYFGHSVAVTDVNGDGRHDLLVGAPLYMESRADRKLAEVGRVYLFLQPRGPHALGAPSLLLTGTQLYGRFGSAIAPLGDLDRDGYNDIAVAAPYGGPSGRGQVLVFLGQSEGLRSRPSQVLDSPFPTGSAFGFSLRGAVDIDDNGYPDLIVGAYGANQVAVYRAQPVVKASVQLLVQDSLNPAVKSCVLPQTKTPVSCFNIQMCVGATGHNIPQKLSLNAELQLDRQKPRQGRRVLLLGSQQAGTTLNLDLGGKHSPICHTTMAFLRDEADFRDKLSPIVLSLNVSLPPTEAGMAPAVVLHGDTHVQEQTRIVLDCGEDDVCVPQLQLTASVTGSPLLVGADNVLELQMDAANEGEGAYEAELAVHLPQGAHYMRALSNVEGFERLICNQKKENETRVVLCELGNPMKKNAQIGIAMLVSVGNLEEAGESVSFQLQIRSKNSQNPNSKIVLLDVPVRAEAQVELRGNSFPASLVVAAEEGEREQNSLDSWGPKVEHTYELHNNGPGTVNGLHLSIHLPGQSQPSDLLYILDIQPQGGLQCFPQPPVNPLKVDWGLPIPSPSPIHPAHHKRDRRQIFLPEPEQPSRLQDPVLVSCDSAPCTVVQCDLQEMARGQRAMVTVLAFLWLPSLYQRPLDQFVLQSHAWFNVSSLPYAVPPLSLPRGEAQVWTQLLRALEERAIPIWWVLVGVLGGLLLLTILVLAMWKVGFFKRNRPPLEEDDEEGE
Sequence of αllbβ3 receptor (P05106 27-788): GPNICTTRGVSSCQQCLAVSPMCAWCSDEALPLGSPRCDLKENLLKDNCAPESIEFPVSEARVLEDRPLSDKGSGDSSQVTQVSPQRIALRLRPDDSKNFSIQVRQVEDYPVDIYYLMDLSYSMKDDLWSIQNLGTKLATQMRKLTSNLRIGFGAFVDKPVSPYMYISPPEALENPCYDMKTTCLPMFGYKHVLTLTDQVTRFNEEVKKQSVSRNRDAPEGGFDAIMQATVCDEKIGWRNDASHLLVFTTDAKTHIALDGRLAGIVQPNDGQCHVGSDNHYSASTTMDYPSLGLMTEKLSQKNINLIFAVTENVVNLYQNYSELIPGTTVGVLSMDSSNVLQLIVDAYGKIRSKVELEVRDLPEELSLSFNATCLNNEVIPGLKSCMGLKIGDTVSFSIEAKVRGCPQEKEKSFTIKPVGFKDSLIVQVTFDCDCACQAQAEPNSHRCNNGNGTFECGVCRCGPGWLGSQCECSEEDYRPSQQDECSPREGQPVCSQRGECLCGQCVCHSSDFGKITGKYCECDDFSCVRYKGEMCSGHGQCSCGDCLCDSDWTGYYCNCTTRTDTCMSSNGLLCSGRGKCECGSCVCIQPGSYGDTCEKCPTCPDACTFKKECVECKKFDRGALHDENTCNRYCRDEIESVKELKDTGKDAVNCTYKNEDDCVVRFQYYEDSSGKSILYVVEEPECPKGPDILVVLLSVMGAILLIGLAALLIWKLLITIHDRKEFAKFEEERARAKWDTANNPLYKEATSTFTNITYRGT

Row | SMILES | SPECIFICITY αIIb β3/αvβ3 (specificity index)
1 | O=C(N[C@@H](CNC(=O)c1ccc(CN(Cc2nc3ccccc3[nH]2)C(=O)Nc2ccc(-c3ccccc3)cc2)cc1)C(=O)O)OCc1ccccc1 [Example 5-38] | 49
2 | O=C(NC(CNC(=O)c1ccc(CN(CCc2nc3ccccc3[nH]2)C(=O)CCC2CCCC2)cc1)C(=O)O)OCc1ccccc1 (stereo not drawn) [Example 5-74] | 0.6
3 | CCOC(=O)CNC(=O)N(Cc1ccc(C(=O)NC[C@H](NC(=O)OCc2ccccc2)C(=O)O)cc1)Cc1nc2ccccc2[nH]1 [Example 5-45, N^3-[4-[(benzimidazol-2-yl)methyl][[(ethoxycarbonylmethyl)amino]-carbonyl]aminomethylbenzoyl]-N^2 -Cbz-L-2,3-diaminopropionic acid] | 1333
4 | CCOC(=O)[C@H](C)NC(=O)N(Cc1ccc(C(=O)NC[C@H](NC(=O)OCc2ccccc2)C(=O)O)cc1)Cc1nc2ccccc2[nH]1 [Example 5-50] | 805
5 | CC(=O)N(Cc1ccc(C(=O)NC[C@H](NC(=O)OCc2ccccc2)C(=O)O)cc1)C(C)c1nc2ccccc2[nH]1 (stereo partly drawn) [Example 5-76] | 6.7
6 | CCOC(=O)[C@H](CC(C)C)NC(=O)N(Cc1ccc(C(=O)NC[C@H](NC(=O)OCc2ccccc2)C(=O)O)cc1)Cc1nc2ccccc2[nH]1 [Example 5-53] | 483
7 | O=C(N[C@@H](CNC(=O)c1ccc(CN(Cc2nc3ccccc3[nH]2)C(=O)COc2ccccc2)cc1)C(=O)O)OCc1ccccc1 [Example 5-19] | 34
8 | CCCCOC(=O)N[C@@H](CNC(=O)c1ccc(CN(Cc2nc3ccccc3[nH]2)C(=O)Nc2ccc(F)cc2)cc1)C(=O)O [Example 5-88] | 1657
9 | O=C(N[C@@H](CNC(=O)c1ccc(CN(Cc2nc3ccccc3[nH]2)C(=O)Nc2ccccc2)cc1)C(=O)O)OCc1ccccc1 [Example 5-27] | 481
10 | COCCNC(=S)N(Cc1ccc(C(=O)NC[C@H](NC(=O)OCc2ccccc2)C(=O)O)cc1)Cc1nc2ccccc2[nH]1 [Example 5-56] | 514
11 | CCOC(=O)[C@@H](NC(=O)N(Cc1ccc(C(=O)NC[C@H](NC(=O)OCc2ccccc2)C(=O)O)cc1)Cc1nc2ccccc2[nH]1)C(C)C [Example 5-51] | 1210
12 | CC(=O)OC(C(=O)N(Cc1ccc(C(=O)NC[C@H](NC(=O)OCc2ccccc2)C(=O)O)cc1)Cc1nc2ccccc2[nH]1)c1ccccc1 (stereo partly drawn) [Example 5-18] | 82
13 | CCOC(=O)CCNC(=O)N(Cc1ccc(C(=O)NC[C@H](NC(=O)OCc2ccccc2)C(=O)O)cc1)Cc1nc2ccccc2[nH]1 [Example 5-54] | 413
14 | COc1ccc(NC(=S)N(Cc2ccc(C(=O)NC[C@H](NC(=O)OCc3ccccc3)C(=O)O)cc2)Cc2nc3ccccc3[nH]2)cc1 [Example 5-46] | 1065
15 | O=C(N[C@@H](CNC(=O)c1ccc(CN(Cc2nc3ccccc3[nH]2)C(=O)C2CCCCC2)cc1)C(=O)O)OCc1ccccc1 [Example 5-15] | 95
16 | CCOC(=O)[C@H](Cc1ccccc1)NC(=O)N(Cc1ccc(C(=O)NC[C@H](NC(=O)OCc2ccccc2)C(=O)O)cc1)Cc1nc2ccccc2[nH]1 [Example 5-52] | 448
17 | O=C(N[C@@H](CNC(=O)c1ccc(CN(Cc2nc3ccccc3[nH]2)C(=O)NC23CC4CC(CC(C4)C2)C3)cc1)C(=O)O)OCc1ccccc1 [Example 5-40] | 288
18 | CC(C)(C)OC(=O)N[C@@H](CNC(=O)c1ccc(CN(Cc2nc3ccccc3[nH]2)C(=O)CCc2ccccc2)cc1)C(=O)O [Example 5-63] | 293
19 | CCOC(=O)CCC(=O)N(Cc1ccc(C(=O)NC[C@H](NC(=O)OCc2ccccc2)C(=O)O)cc1)Cc1nc2ccccc2[nH]1 [Example 5-17] | 76
20 | CCCCOC(=O)N[C@@H](CNC(=O)c1ccc(CN(Cc2nc3ccccc3[nH]2)C(=O)NC2CCCCC2)cc1)C(=O)O [Example 5-82] | 1259
21 | Cn1c(CN(Cc2ccc(C(=O)NC[C@H](NC(=O)OCc3ccccc3)C(=O)O)cc2)C(=O)NC2CCCCC2)nc2ccccc21 [Example 5-92] | 174
22 | COCCC(=O)N(Cc1ccc(C(=O)NC[C@H](NC(=O)OCc2ccccc2)C(=O)O)cc1)Cc1nc2ccccc2[nH]1 [Example 5-25] | 52
23 | CCCCOC(=O)N[C@@H](CNC(=O)c1ccc(CN(Cc2nc3ccccc3[nH]2)C(=O)NCC(=O)O)cc1)C(=O)O [Example 5-97, N^3-[4-[(Benzimidazol-2-yl)methyl][[(carboxymethyl)amino]carbonyl]aminomethylbenzoyl]-N^2-(n-butoxycarbonyl)-L-2,3-diaminopropionic acid] | 2600
24 | O=C(N[C@@H](CNC(=O)c1ccc(CN(Cc2nc3ccccc3[nH]2)C(=O)CCc2ccccc2)cc1)C(=O)O)OCc1ccccc1 [Example 5-16] | 899

Row | SMILES | SPECIFICITY αIIb β3/αvβ3 (specificity index)
25 | COCC(=O)N(CCc1nc2ccccc2[nH]1)Cc1ccc(C(=O)NCC(NC(=O)OCc2ccccc2)C(=O)O)cc1 (stereo not drawn) [Example 5-72] | 0.5
26 | CCCCOC(=O)N[C@@H](CNC(=O)c1ccc(CN(Cc2nc3ccccc3[nH]2)C(=O)Nc2ccc(C(=O)OCC)cc2)cc1)C(=O)O [Example 5-91] | 1183
27 | CC(C)(C)OC(=O)N[C@@H](CNC(=O)c1ccc(CN(Cc2nc3ccccc3[nH]2)C(=O)CCC2CCCC2)cc1)C(=O)O [Example 5-64] | 499
28 | CCOC(=O)c1ccc(NC(=O)N(Cc2ccc(C(=O)NC[C@H](NC(=O)OCc3ccccc3)C(=O)O)cc2)Cc2nc3ccccc3[nH]2)cc1 [Example 5-47] | 1252
29 | O=C(NC(CNC(=O)c1ccc(CNCCc2nc3ccccc3[nH]2)cc1)C(=O)O)OCc1ccccc1 (stereo not drawn) [Example 5-70] | 0.2
30 | COCC(=O)N(Cc1ccc(C(=O)NC[C@H](NC(=O)OC(C)(C)C)C(=O)O)cc1)Cc1nc2ccccc2[nH]1 [Example 5-62] | 419
31 | CCCNC(=O)N(Cc1ccc(C(=O)NC[C@H](NC(=O)OCc2ccccc2)C(=O)O)cc1)Cc1nc2ccccc2[nH]1 [Example 5-39] | 223
32 | CCCCOC(=O)N[C@@H](CNC(=O)c1ccc(CN(Cc2nc3ccccc3[nH]2)C(=O)NC(C)C)cc1)C(=O)O [Example 5-84] | 712
33 | CC(C)NC(=O)N(Cc1ccc(C(=O)NC[C@H](NC(=O)OCc2ccccc2)C(=O)O)cc1)Cc1nc2cc(Cl)ccc2[nH]1 [Example 5-95] | 775
34 | CC(=O)N(Cc1ccc(C(=O)NC[C@H](NC(=O)OC(C)(C)C)C(=O)O)cc1)Cc1nc2ccccc2[nH]1 [Example 5-61] | 324
35 | CCOC(=O)N(Cc1ccc(C(=O)NC[C@H](NC(=O)OCc2ccccc2)C(=O)O)cc1)Cc1nc2ccccc2[nH]1 [Example 5-20] | 15
36 | COCC(=O)N(Cc1ccc(C(=O)NC[C@H](NC(=O)OCc2ccccc2)C(=O)O)cc1)C(C)c1nc2ccccc2[nH]1 (stereo partly drawn) [Example 5-77] | 12.4
37 | COCC(=O)N(Cc1ccc(C(=O)NC[C@@H](NC(=O)OCc2ccccc2)C(=O)O)cc1)Cc1nc2ccccc2[nH]1 [Example 5-58] | 46
38 | CC(C)(C)OC(=O)N[C@@H](CNC(=O)c1ccc(CNCc2nc3ccccc3[nH]2)cc1)C(=O)O [Example 5-60] | 90
39 | O=C(N[C@@H](CNC(=O)c1ccc(CN(Cc2nc3ccccc3[nH]2)C(=S)NC2CCCCC2)cc1)C(=O)O)OCc1ccccc1 [Example 5-55] | 620
40 | CC(=O)N(Cc1ccc(C(=O)NC(CC(=O)O)c2ccccc2)cc1)Cc1nc2ccccc2[nH]1 (stereo not drawn) [Example 5-66] | 0.4
41 | CC(C)(C)NC(=O)N(Cc1ccc(C(=O)NC[C@H](NC(=O)OCc2ccccc2)C(=O)O)cc1)Cc1nc2ccccc2[nH]1 [Example 5-34] | 421
42 | O=C(N[C@@H](CNC(=O)c1ccc(CN(Cc2nc3cc(Cl)ccc3[nH]2)C(=O)NC2CCCCC2)cc1)C(=O)O)OCc1ccccc1 [Example 5-94] | 399
43 | CCOc1ccc(NC(=O)N(Cc2ccc(C(=O)NC[C@H](NC(=O)OCc3ccccc3)C(=O)O)cc2)Cc2nc3ccccc3[nH]2)cc1 [Example 5-32] | 151
44 | O=C(N[C@@H](CNC(=O)c1ccc(CN(Cc2nc3ccccc3[nH]2)C(=O)N2CCOCC2)cc1)C(=O)O)OCc1ccccc1 [Example 5-42] | 39
45 | O=C(N[C@@H](CNC(=O)c1ccc(CN(Cc2nc3ccccc3[nH]2)C(=O)Nc2cccc3ccccc23)cc1)C(=O)O)OCc1ccccc1 [Example 5-37] | 203
46 | CCCCOC(=O)N[C@@H](CNC(=O)c1ccc(CN(Cc2nc3ccccc3[nH]2)C(=O)NC(C)(C)C)cc1)C(=O)O [Example 5-85] | 1223
47 | O=C(N[C@@H](CNC(=O)c1ccc(CN(Cc2nc3ccccc3[nH]2)C(=O)Nc2ccc(Cl)cc2)cc1)C(=O)O)OCc1ccccc1 [Example 5-35] | 240
48 | CC(C)C(=O)N(Cc1ccc(C(=O)NC[C@H](NC(=O)OCc2ccccc2)C(=O)O)cc1)Cc1nc2ccccc2[nH]1 [Example 5-13] | 38
